Experimental findings from ChEMBL document CHEMBL1201862, “PubChem BioAssay data set” (2004) are described below.

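Grown in 96-well plates, cells were treated for 48 hours with each compound at five concentrations. Insufficient inhibition: endpoint recorded as highest concentration tested. Here, GI50 denotes the concentration required for 50% inhibition of growth.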 Active and inactive are the calls of the source. No stated cut-off is given here; in the data, active = GI50 up to about 1.1 µM and inactive = higher.

Some test systems named below: 786-0; ACHN; CCRF-CEM; DU-145; HCT-15; HOP-62; Hs-578T; K562; KM12; MCF7; MDA-MB-231; NCI-H226; NCI-H23; PC-3; SK-MEL-2; SNB-19; TK-10; UACC-62; HCC 2998; A498.
Assay in all cases: DTP human tumour cell line panel, 48 h

A word on the GI50: it is the concentration at which growth is held to half of that of the control. As to `Cc1ccc(/C=C2\CCCc3ccccc3C2=O)cc1`, the GI50 with 786-0 is 18 µM (inactive); with ACHN it was 31.8 µM (inactive); with CCRF-CEM, 15.1 µM (inactive); with DU-145, 22.2 µM (inactive); in the assay with HCT-15, 6.64 µM; with HOP-62, 9.2 µM (inactive). For the same molecule, the GI50 with Hs-578T is 12.4 µM (inactive); with K562 it was 12.2 µM (inactive); in the assay with KM12 it was 4.11 µM (inactive); in the assay with MCF7 it was 18.3 µM (inactive); with MDA-MB-231, 9.62 µM (inactive); in the assay on NCI-H226, 6.46 µM (inactive). The GI50 was 9.2 µM (inactive) in the assay with NCI-H23; 14.7 µM (inactive) in the assay with PC-3; 2.38 µM (inactive) with SK-MEL-2; 19.5 µM (inactive) in the assay with SNB-19; 25.1 µM (inactive) in the assay with TK-10; 9.51 µM (inactive) with UACC-62.

For `O=C1/C(=N\NC(=S)Nc2ccc(Cl)cc2)c2cc([N+](=O)[O-])ccc2N1CN1CCOCC1`, the GI50 with 786-0 is 4.41 µM (inactive); with ACHN, 4.73 µM (inactive); with CCRF-CEM, 2.85 µM (inactive); in the assay with DU-145, 10.5 µM (inactive); with HCT-15, 3.36 µM; with HOP-62, < 0.01 µM (active). The GI50 in the assay with Hs-578T is 7.03 µM (inactive); in the assay with KM12 it was 11.7 µM (inactive); in the assay on MCF7, 5.24 µM (inactive); in the assay with MDA-MB-231, 15 µM (inactive); with NCI-H226, 4.81 µM (inactive); in the assay on NCI-H23 it was 2.08 µM (inactive). The GI50 in the assay with PC-3 was 10.2 µM (inactive); in the assay with SK-MEL-2, 13.2 µM (inactive); in the assay with SNB-19, 7.89 µM (inactive); with TK-10, 12.2 µM (inactive); in the assay on UACC-62, 5.31 µM (inactive).

`O=C(O)C1Cc2ccccc2OC1=O` (configuration not stated): the GI50 with 786-0 was > 100 µM (inactive); with ACHN it was > 100 µM (inactive); in the assay with DU-145, > 100 µM (inactive); in the assay with HCC 2998, > 100 µM (inactive); with HCT-15 it was over 100 µM; with HOP-62 it was > 100 µM (inactive). Moreover, the GI50 with Hs-578T, in the assay with K562, in the assay with KM12, with MCF7, in the assay on MDA-MB-231 and in the assay on NCI-H226 was > 100 µM (inactive) throughout. In addition, the GI50 in the assay with NCI-H23 was 8.69 µM (inactive); in the assay with PC-3 it was > 100 µM (inactive); with SK-MEL-2 it was > 100 µM (inactive); with SNB-19 it was > 100 µM (inactive); with TK-10, > 100 µM (inactive); with UACC-62, > 100 µM (inactive).

With `N#CSc1[nH]cnc1C(N)=O`, the GI50 was 40.9 µM (inactive) in the assay on 786-0; > 100 µM (inactive) in the assay on A498; > 100 µM (inactive) in the assay on ACHN; 5.21 µM (inactive) in the assay with CCRF-CEM; > 100 µM (inactive) in the assay on DU-145; > 100 µM (inactive) with HCC 2998. Besides, the GI50 in the assay on HCT-15 was over 100 µM; in the assay with HOP-62, > 100 µM (inactive); in the assay on Hs-578T, > 100 µM (inactive); in the assay on K562, 20 µM (inactive); in the assay on KM12 it was > 100 µM (inactive); in the assay on MDA-MB-231, 55.7 µM (inactive). Besides, the GI50 in the assay with NCI-H226, in the assay with NCI-H23, in the assay with PC-3, in the assay on SK-MEL-2, in the assay with SNB-19 and in the assay on TK-10 was > 100 µM (inactive) in each case. The GI50 in the assay on UACC-62 is 79.6 µM (inactive).

For `CC(C)=NN/C(=N\c1ccc(Cl)cc1)NS(=O)(=O)c1cc2ccccc2s1`, the GI50 in the assay on 786-0 was > 100 µM (inactive); in the assay with CCRF-CEM it was 40.4 µM (inactive); in the assay on DU-145, > 100 µM (inactive); in the assay on HCT-15, 71.8 µM; with HOP-62 it was > 100 µM (inactive); in the assay on Hs-578T, > 100 µM (inactive). For the same molecule, the GI50 was 23 µM (inactive) in the assay with K562; 90.4 µM (inactive) with KM12; 53 µM (inactive) with MCF7; > 100 µM (inactive) in the assay on MDA-MB-231; > 100 µM (inactive) in the assay on NCI-H226; 76 µM (inactive) in the assay with NCI-H23. In addition, the GI50 in the assay with PC-3 is 45.7 µM (inactive); in the assay with SK-MEL-2, 65.8 µM (inactive); with SNB-19, > 100 µM (inactive); in the assay on TK-10, 87.9 µM (inactive); with UACC-62 it was > 100 µM (inactive).

`CC(=O)OCC1OC(n2c(C)c(/N=N/c3ccccc3)c(C)c(C#N)c2=S)C(OC(C)=O)C(OC(C)=O)C1OC(C)=O` (configuration not stated): the GI50 in the assay on 786-0 is 7.38 µM (inactive); with ACHN, > 100 µM (inactive); in the assay with CCRF-CEM, > 100 µM (inactive); in the assay on DU-145 it was 83.4 µM (inactive); with HCC 2998 it was > 100 µM (inactive); in the assay on HOP-62 it was 14.4 µM (inactive). Also, the GI50 with Hs-578T was 5.32 µM (inactive); in the assay on K562 it was > 100 µM (inactive); in the assay with KM12, > 100 µM (inactive); in the assay on MCF7, > 100 µM (inactive); in the assay on MDA-MB-231, 20.6 µM (inactive); in the assay with NCI-H23, > 100 µM (inactive). In addition, the GI50 is > 100 µM (inactive) with PC-3; 24.9 µM (inactive) in the assay on SK-MEL-2; 24.2 µM (inactive) with SNB-19; 29 µM (inactive) with TK-10; 14.8 µM (inactive) with UACC-62.

Take `O=c1c(Cl)nsnc1Cl`: the GI50 in the assay on 786-0 was 1.7 µM (inactive); in the assay with ACHN, 6.1 µM (inactive); in the assay on CCRF-CEM it was 0.984 µM (active); in the assay with DU-145, 17.3 µM (inactive); in the assay on HCC 2998 it was 19.4 µM (inactive); in the assay on HCT-15, 17.5 µM. Besides, the GI50 with HOP-62 is 18.7 µM (inactive); with Hs-578T, 30.2 µM (inactive); in the assay with K562, 1.73 µM (inactive); in the assay on KM12, > 38.7 µM (inactive); in the assay with MCF7, 6.22 µM (inactive); in the assay on MDA-MB-231, 19.3 µM (inactive). The GI50 in the assay on NCI-H226 is 22.9 µM (inactive); with NCI-H23, 23.3 µM (inactive); in the assay on PC-3, 16.2 µM (inactive); with SK-MEL-2, 36.4 µM (inactive); with SNB-19, 23.4 µM (inactive); in the assay on TK-10 it was 2.57 µM (inactive). Moreover, the GI50 in the assay with UACC-62 was 11.1 µM (inactive).

Turning to `O=c1oc2ccccc2c2nc3ccccc3cc12`, the GI50 was 28.2 µM (inactive) with 786-0; 33 µM (inactive) with A498; 31 µM (inactive) in the assay with ACHN; > 100 µM (inactive) in the assay with CCRF-CEM; > 100 µM (inactive) in the assay with DU-145; 72.1 µM (inactive) in the assay on HCC 2998. Also, the GI50 is over 100 µM with HCT-15; 25.9 µM (inactive) with Hs-578T; > 100 µM (inactive) with K562; > 100 µM (inactive) with KM12; 23 µM (inactive) in the assay with MDA-MB-231; 37.4 µM (inactive) in the assay on NCI-H226. For the same molecule, the GI50 with NCI-H23 was > 100 µM (inactive); in the assay on PC-3, 56.2 µM (inactive); with SK-MEL-2, > 100 µM (inactive); in the assay on SNB-19, 23.3 µM (inactive); in the assay with TK-10 it was 58.7 µM (inactive); in the assay with UACC-62, 35.3 µM (inactive).

As for `O=C1Oc2ccccc2C(=O)/C1=C/N1C(=O)CNC1=S`, the GI50 in the assay on 786-0 was > 100 µM (inactive); in the assay on ACHN, 56.8 µM (inactive); with CCRF-CEM it was 80.2 µM (inactive); in the assay on DU-145 it was > 100 µM (inactive); in the assay on HCC 2998 it was > 100 µM (inactive); in the assay with HCT-15 it was over 100 µM. In addition, the GI50 in the assay with HOP-62, in the assay with Hs-578T, in the assay on K562, in the assay on KM12, in the assay on MCF7 and in the assay with MDA-MB-231 was > 100 µM (inactive) each time. The GI50 in the assay with NCI-H226, in the assay with NCI-H23, with PC-3, with SK-MEL-2, in the assay on SNB-19 and in the assay on TK-10 was > 100 µM (inactive) in each case. In the assay on UACC-62, the GI50 is > 100 µM (inactive).

As for `COc1ccc(N2C(=O)CC(C3CC(C(C)(C)C)CCC3=O)C2=O)cc1` (configuration not stated), the GI50 with 786-0 was > 100 µM (inactive); in the assay with ACHN, > 100 µM (inactive); with CCRF-CEM, > 100 µM (inactive); in the assay with DU-145 it was > 100 µM (inactive); with HCC 2998, > 100 µM (inactive); in the assay with HCT-15 it was over 100 µM. For the same molecule, the GI50 with HOP-62, with Hs-578T, with K562, with KM12, with MCF7 and with MDA-MB-231 was > 100 µM (inactive) in each case. Further, the GI50 in the assay with NCI-H226, in the assay with NCI-H23, in the assay on PC-3, in the assay on SNB-19, with TK-10 and in the assay on UACC-62 was > 100 µM (inactive) in each case.

Regarding `N=c1oc2ccc3ccccc3c2cc1C(N)=O`, the GI50 in the assay on 786-0 was 34 µM (inactive); with A498, 43.7 µM (inactive); in the assay on ACHN, 24.9 µM (inactive); in the assay with CCRF-CEM, 35.9 µM (inactive); in the assay on DU-145, 71 µM (inactive); in the assay with HCC 2998 it was 49.3 µM (inactive). Besides, the GI50 is 58.1 µM in the assay on HCT-15; 48.3 µM (inactive) in the assay with HOP-62; 15.6 µM (inactive) in the assay on Hs-578T; 16.7 µM (inactive) with KM12; 25.9 µM (inactive) in the assay with MDA-MB-231; 15.3 µM (inactive) with NCI-H226. Moreover, the GI50 was 48.6 µM (inactive) in the assay with NCI-H23; 18.7 µM (inactive) in the assay on PC-3; 19.4 µM (inactive) in the assay with SK-MEL-2; 25.1 µM (inactive) in the assay with SNB-19; 28 µM (inactive) in the assay on UACC-62.
